Entries after “also recorded” stand apart in the source; their conditions may differ.
Key:
NT binding sites = settings: rat, 5–9 days after the birth; ref Lépée-Lorgeoux et al., 1999; cited from earlier work
From the text: This is similar to that reported previously for somatostatin and benzodiazepine binding sites ([Najimi et al., 1991], [2001]). […] We cannot exclude also that these hypothalamic structures have not yet completed their neuronal maturation ([Kopp et al., 1992]). Studies on older ages should reveal the ...

[1] = target: T1, NT binding sites, human hypothalamus (neonate/infant) (Homo sapiens, UniProt P30989); test: Levocabastine competition with specific 125I-NT binding (competition experiments and autoradiography); settings: all hypothalamic nuclei and areas in all cases
T1 construct: The frozen hypothalami were then sliced as 20 μm thick coronal sections; from tissue; host or cells: postmortem human neonate/infant hypothalamus, 20 μm frozen coronal sections
T1 sequence (P30989 whole entry): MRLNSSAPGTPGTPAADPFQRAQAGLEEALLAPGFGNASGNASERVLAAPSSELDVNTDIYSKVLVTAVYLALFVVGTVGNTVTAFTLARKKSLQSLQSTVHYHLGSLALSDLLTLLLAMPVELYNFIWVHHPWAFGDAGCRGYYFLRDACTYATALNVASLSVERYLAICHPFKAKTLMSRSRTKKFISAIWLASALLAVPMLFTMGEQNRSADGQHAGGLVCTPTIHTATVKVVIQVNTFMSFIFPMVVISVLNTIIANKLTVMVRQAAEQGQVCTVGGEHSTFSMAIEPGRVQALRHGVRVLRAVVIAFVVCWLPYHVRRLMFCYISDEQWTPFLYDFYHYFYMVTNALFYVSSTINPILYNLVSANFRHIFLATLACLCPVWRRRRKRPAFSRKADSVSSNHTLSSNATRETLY
Description: After incubation, the slides were washed with ice cold buffer four times for 2 min each and rapidly dried with cold air. Labeled sections and iodinated standards (Amersham, Courtaboeuf Cedex, France) were then apposed to 3H sensitive Ultrofilm (Amersham) in Amersham exposure cassettes. After 2 weeks exposure in dark conditions at 4°C, the film was developed in Kodak D19 (Eastman Kodak, Rochester, NY, USA) for 3 min, dipped in water and fixed with Kodak rapid fixer for 10 min.
Kinetics (IC50 and KD) analysis was computed by the method of [Parker and Waud (1971)].

NT2 receptor = settings: reference not given; cited from earlier work

| SMILES | number of NT binding sites after blockade of neurotransmission (NT binding sites) | inhibition of specific 125I-NT binding by levocabastine [1] | affinity for the NT2 receptor, in words (NT2 receptor) |
| --- | --- | --- | --- |
| COc1cccc(OC)c1-c1cc(C(=O)NC2(C(=O)O)C3CC4CC(C3)CC2C4)nn1-c1ccnc2cc(Cl)ccc12 (stereo not drawn) [SR 48692] | increases greatly the number of NT binding sites |  |  |
| C[C@@H]1CN([C@H]2CC[C@](C#N)(c3ccc(F)cc3)CC2)CC[C@]1(C(=O)O)c1ccccc1 [levocabastine] |  | insensitivity to levocabastine; also recorded: did not inhibit specific binding of ^125I-NT | has affinity for the NT2 receptor |
